Results from patent publication US20090291150A1, “METHOD AND COMPOSITIONS FOR TREATING AND […] BY […]-SENSING ION CHANNEL ACTIVITY” (priority 2008, published 2009).

How the values were obtained:
[1] = tested on: PTZ-evoked lethal seizures; assay: CO2 inhalation at onset of PTZ-evoked generalized seizures, survival; format: in vivo, mouse; conditions: 90 mg/kg PTZ IP, 10% CO2 in air for 15 minutes from onset of generalized seizures
Procedure: Age (13-16 weeks) and gender-matched ASIC1a+/+ and ASIC1a−/− mice were injected IP with 90 mg/kg PTZ to test the anti-epileptic effects of CO2. A high dose of PTZ was administered to evoke lethal seizures in mice of both genotypes (FIG. 6a). Kaplan-Meier survival analysis of ASIC1a+/+ and ASIC1a−/− mice in response to 90 mg/kg PTZ while breathing compressed air was conducted (+/+, n 7; −/−, n=7). Both mice had the same rate of reduced survival (Mantel-Cox Log Rank, p=0.582).
After the onset of generalized-clonic seizures (identified behaviorally by clonus in all four limbs), compressed air or 10% CO2 (in air) was rapidly administered in an airtight Plexiglas chamber for 15 minutes (FIG. 6b). The onset latency and time of CO2 administration was similar between genotypes (inset) (unpaired T-test, df (14), t=0.663, p=0.518). The chamber was perfused with CO2 until minute 15, and then switched to compressed air for the duration of the trial (+/+, n=8; −/−, n=8). […] In the ASIC1a−/− mice, seizures continued to progress rapidly to death. All of the ASIC1a+/+ mice survived until the CO2 was switched back to air at minute 15, whereupon the mice rapidly died. The results verified the in vitro findings and taught that ASIC1a also mediates the anti-epileptic effects of low pH in vivo.

[2] = target: T1, ASIC1a (Mus musculus, UniProt Q6NXK8); assay: Kainate-induced seizures after ICV injection of PcTx1 in wild-type mice; format: in vivo; conditions: ICV injection 2 hours before kainate 20 mg/kg IP
T1 construct: from tissue; host or cells: brain of living wild-type mice (C57/B16 background), ICV injection
T1 sequence (Q6NXK8 1-526): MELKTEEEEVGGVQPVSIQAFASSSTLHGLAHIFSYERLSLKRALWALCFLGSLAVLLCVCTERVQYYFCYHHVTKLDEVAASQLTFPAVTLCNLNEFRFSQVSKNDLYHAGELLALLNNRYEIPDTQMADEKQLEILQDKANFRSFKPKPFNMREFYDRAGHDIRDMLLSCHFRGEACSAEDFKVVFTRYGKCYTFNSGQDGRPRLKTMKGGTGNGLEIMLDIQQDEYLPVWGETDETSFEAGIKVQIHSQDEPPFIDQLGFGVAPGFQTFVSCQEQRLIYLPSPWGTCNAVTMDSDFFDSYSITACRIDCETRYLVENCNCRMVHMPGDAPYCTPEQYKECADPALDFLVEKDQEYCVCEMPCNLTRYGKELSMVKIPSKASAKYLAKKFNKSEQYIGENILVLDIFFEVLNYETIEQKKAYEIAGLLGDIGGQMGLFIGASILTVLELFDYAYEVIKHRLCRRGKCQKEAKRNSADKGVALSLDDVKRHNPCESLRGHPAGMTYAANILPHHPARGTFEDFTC
Procedure: Similar effects on seizure activity with both ASIC1a gene disruption and pharmalogical blockade indicate that developmental abnormalities were not responsible for the effects in ASIC1a−/− mice.
Left-lateral, ICV guide cannulae were implanted in anesthetized mice (relative to bregma: anteroposterior −0.3 mm, lateral−1.0 mm, ventral=3.0 mm) and verified by methylene blue injection after euthanasia. Three to five days later, 5 uL or PcTx1-containing venom (SpiderPharm, Yarnell, Ariz.) ([…]) was injected in ACSF (in mM: NaCl 124, KCl 3, NaH2PO4 1.2, MgSO4 1.2, CaCl2 2, NaHCO3 26) or ACSF alone into wild-type mice using a 10 uL-Hamilton syringe connected to a 30-gauge injection (over 10 seconds). Two hours later, mice were injected with kainate (20 mg/kg, IP) then mouse behavior was scored. Continuous, tonic-clonic seizures were identified by tonus and clonus in all four limbs with loss of posture lasting greater than 60 seconds.

Molecule	effect on lethal seizures (survival) ([1]; ASIC1a-/- mice)	effect on lethal seizures (survival) ([1]; WT (ASIC1a+/+) mice)	incidence of continuous GTCS following kainate injection [2]
O=C=O [CO2, carbon dioxide]	had little effect	prevented lethal seizures	–
psalmotoxin 1 [PcTx1]	–	–	increased the incidence of continuous GTCS
